The species entered for experiment [1] is Cavia porcellus. Nature of the experiment: The compound was tested for the agonistic activity of amylase secretion by Guinea pig acini. It is filed as functional.
The species named for experiment [2] is Cavia porcellus. The experiment in a line: The compound was tested for the agonistic activity of contractile activities of Guinea pig ileum. The format is functional.

Starred links: 1 amine or outer side, 2 acyl side, 3 side chain; linkers in the order of their positions; H or OH if unused. Non-standard residues stand in square brackets, D forms with d. Residues, ends and D or L forms follow the SMILES beside them. Phe(4-CH2SO3H) = N[C@@H](Cc1ccc(CS(=O)(=O)O)cc1)C(=O)O; X1 = O=C([C@@H](Cc1ccc(CS(=O)(=O)O)cc1)N[*:1])[*:2]; Nle = CCCC[C@H](N)C(=O)O

On to `CCCC[C@H](NC(=O)[C@H](Cc1c[nH]c2ccccc12)NC(=O)CNC(=O)[C@H](CCCC)NC(=O)[C@@H](Cc1ccc(OS(=O)(=O)O)cc1)NC(=O)OC(C)(C)C)C(=O)N[C@@H](CC(=O)O)C(=O)N[C@@H](Cc1ccccc1)C(N)=O`, for which the figures for the EC50 in the experiment listed under Cavia porcellus [1] and in the experiment listed under Cavia porcellus [2] were 4.5 nM and 28 nM, respectively.

Turning to `CCCC[C@H](NC(=O)[C@H](Cc1ccc(OS(=O)(=O)O)cc1)NC(=O)OC(C)(C)C)C(=O)NCC(=O)N[C@@H](Cc1c[nH]c2ccccc12)C(=O)N[C@@H](CCCC)C(=O)N[C@@H](CC(=O)O)C(=O)N[C@@H](Cc1ccccc1)C(N)=O`, it took 0.28 nM to reach a half-maximal effect in the experiment listed under Cavia porcellus [1] (EC50).

Take `CCCC[C@H](NC(=O)[C@H](Cc1ccc(CS(=O)(=O)O)cc1)NC(C)=O)C(=O)NCC(=O)N[C@@H](Cc1c[nH]c2ccccc12)C(=O)N[C@@H](CCCC)C(=O)N[C@@H](CC(=O)O)C(=O)N[C@@H](Cc1ccccc1)C(N)=O` (Ac-[Phe(4-CH2SO3H)][Nle]GW[Nle]DF-NH2): the EC50 in the experiment listed under Cavia porcellus [1] is 0.33 nM; in the experiment filed under Cavia porcellus [2] it was 3.8 nM.

With `CCCC[C@H](NC(=O)[C@H](Cc1c[nH]c2ccccc12)NC(=O)CNC(=O)[C@H](CCCC)NC(=O)[C@@H](Cc1ccc(CS(=O)(=O)O)cc1)NC(C)=O)C(=O)N[C@@H](CC(=O)O)C(=O)N[C@@H](Cc1ccccc1)C(N)=O` (Ac-[X1][Nle]GW[Nle]DF-NH2), the EC50 in the experiment filed under Cavia porcellus [1] amounted to 1.6 nM; in the experiment listed under Cavia porcellus [2] it was 17 nM.

`CSCC[C@H](NC(=O)[C@H](Cc1ccc(OS(=O)(=O)O)cc1)NC(=O)[C@@H](N)CC(=O)O)C(=O)NCC(=O)N[C@@H](Cc1c[nH]c2ccccc12)C(=O)N[C@@H](CCSC)C(=O)N[C@@H](CC(=O)O)C(=O)N[C@@H](Cc1ccccc1)C(N)=O` [SINCALIDE] gave an EC50 in the experiment listed under Cavia porcellus [1] of 0.1 nM.
